Data from patent US20260191858A1, “COMBINATION THERAPIES” (Kallyope, Inc., priority 2022, published 2026).

Biological target: T1, human GPR119 (hGPR119) (Homo sapiens, UniProt Q8TDV5)
T1 construct: expressed in transfected cells; host or cells: CHO-K1
T1 sequence (Q8TDV5 1-335): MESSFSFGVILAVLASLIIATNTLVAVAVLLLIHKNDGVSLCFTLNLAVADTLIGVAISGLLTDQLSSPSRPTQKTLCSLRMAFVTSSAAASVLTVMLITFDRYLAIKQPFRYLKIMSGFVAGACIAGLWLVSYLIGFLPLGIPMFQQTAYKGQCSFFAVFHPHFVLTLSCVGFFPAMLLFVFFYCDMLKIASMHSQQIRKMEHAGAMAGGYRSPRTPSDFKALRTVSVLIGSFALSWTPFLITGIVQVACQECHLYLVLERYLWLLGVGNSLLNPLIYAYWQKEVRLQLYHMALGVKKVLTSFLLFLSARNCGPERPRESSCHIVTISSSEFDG
Experiment: cAMP accumulation assay in CHO-K1 cells stably expressing hGPR119
Format: cell-based
Conditions: cAMP HTRF, 60 minutes
Protocol: CHO-K1 cells stably expressing human GPR119 (hGPR119) were prepared by transfection of a GPR119-carrying plasmid using Lipofectamine 2000 (following manufacturer instructions). A stable cell line was established using the limiting dilution method with geneticine selection. Assay-ready frozen (ARF) cells were prepared and used throughout the study.
The assay was performed in a 384-well plate format using the CAMP Gs dynamic assay kit from Cisbio. ARF cells expressing hGPR119 were thawed, washed and then resuspended in CAMP stimulation buffer at a cell density of 1.1×10^6 cells/mL. Cells were plated at a density of ~10,000 cells/well (9 μL/well). Dose response curves for the tested compounds were prepared in a cAMP stimulation buffer, containing 0.1% Tween 80 at 4 fold the final concentration. The compounds were then transferred to the cell plates using BRAVO (3 μL/well) and the plates were incubated for 60 minutes at 37° C./5% CO2. Detection buffer (10 μL, prepared as described in the CAMP Gs dynamic kit) were added to each well, and the plates were incubated at ambient temperature for 1 hr.
RT-FRET was measured using a ClarioSTAR plate reader, calculating the ratio between emissions at 665 nm and 620 nm (HTRF ratio). The HTRF ratio for positive (Max) and negative (Min) controls were used to normalize HTRF data and generate values for % activity. EC50 and Max activity values were determined using a standard 4-parameter fit.

Row | Compound | EC50 [nM]
1 | CCc1cnc(N2CCC(CCCOc3ccc(CC(=O)N4CC(CNCC(CO)CO)C4)c(F)c3)CC2)nc1 [Compound A32, 2-(4-(3-(1-(5-ethylpyrimidin-2-yl)piperidin-4-yl)propoxy)-2-fluorophenyl)-1-(3-(((3-hydroxy-2-(hydroxymethyl)propyl)amino)methyl)azetidin-1-yl)ethan-1-one] | 100 to 1000
2 | O=C(Cc1ccc(OCCCC2CCN(c3ncc(Cl)cn3)CC2)cc1F)N1CC(CNCCOCCOCCO)C1 [Compound A23] | ≤ 100
3 | O=C(CC1(O)CN(C(=O)Cc2ccc(OCCCC3CCN(c4ncc(Cl)cn4)CC3)cc2F)C1)NCC(CO)(CO)CO [Compound A71, 2-[1-[2-[4-[3-[1-(5-chloropyrimidin-2-yl)-4-piperidyl]propoxy]-2-fluoro-phenyl]acetyl]-3-hydroxy-azetidin-3-yl]-N-[3-hydroxy-2,2-bis(hydroxymethyl)propyl]acetamide] | ≤ 100
4 | O=C(Cc1ccc(OCCCC2CCN(c3ncc(Cl)cn3)CC2)cc1F)N1CC(CN2C[C@@H](O)[C@@H](O)C2)C1 [Compound A20, 2-[4-[3-[1-(5-chloropyrimidin-2-yl)-4-piperidyl]propoxy]-2-fluoro-phenyl]-1-[3-[rac-(3S,4R)-3,4-dihydroxypyrrolidin-1-yl]methyl]azetidin-1-yl]ethanone] | ≤ 100
5 | CCc1cnc(N2CCC(CCCOc3cc(F)c(CC(=O)N4CC(CNCCNC(=O)NC(CO)(CO)CO)C4)c(F)c3)CC2)nc1 [Compound A38, 1-(1,3-dihydroxy-2-(hydroxymethyl)propan-2-yl)-3-(2-(((1-(2-(4-(3-(1-(5-ethylpyrimidin-2-yl)piperidin-4-yl)propoxy)-2,6-difluorophenyl)acetyl)azetidin-3-yl)methyl)amino)ethyl)urea] | ≤ 100
6 | COCc1cnc(N2CCC(CCCOc3ccc(CC(=O)N4CC(C(=O)NC[C@H](O)[C@@H](O)[C@H](O)[C@H](O)CO)C4)c(F)c3)CC2)nc1 (racemic) [Compound A12, 1-[2-[2-fluoro-4-[3-[1-[5-(methoxymethyl)pyrimidin-2-yl]-4-piperidyl]propoxy]phenyl]acetyl]-N-[rac-(2S,3R,4R,5R)-2,3,4,5,6-pentahydroxyhexyl]azetidine-3-carboxamide] | 100 to 1000

Now from value to molecule:

Row | EC50 [nM] | Compound
7 | ≤ 100 | O=C(NC(CO)(CO)CO)C1CN(C(=O)Cc2c(F)cc(OCCCC3CCN(c4ncc(Cl)cn4)CC3)cc2F)C1 [Compound A1, 1-[2-[4-[3-[1-(5-chloropyrimidin-2-yl)-4-piperidyl]propoxy]-2,6-difluoro-phenyl]acetyl]-N-[2-hydroxy-1,1-bis(hydroxymethyl)ethyl]azetidine-3-carboxamide]
8 | ≤ 100 | CCCc1cnc(N2CCC(CCCOc3ccc(CC(=O)N4CC(CNC(CO)(CO)CO)C4)c(F)c3)CC2)nc1 [Compound A42, 1-(3-(((1,3-dihydroxy-2-(hydroxymethyl)propan-2-yl)amino)methyl)azetidin-1-yl)-2-(2-fluoro-4-(3-(1-(5-propylpyrimidin-2-yl)piperidin-4-yl)propoxy)phenyl)ethan-1-one]
9 | ≤ 100 | O=C(Cc1ccc(OCCCC2CCN(c3ncc(Cl)cn3)CC2)cc1F)N1CC(CCNC(CO)CO)C1 [Compound A26, 2-(4-(3-(1-(5-chloropyrimidin-2-yl)piperidin-4-yl)propoxy)-2-fluorophenyl)-1-(3-(2-((1,3-dihydroxypropan-2-yl)amino)ethyl)azetidin-1-yl)ethan-1-one]
10 | ≤ 100 | O=C(NCCCS(=O)(=O)O)C1CN(C(=O)Cc2ccc(OCCCC3CCN(c4ncc(Cl)cn4)CC3)cc2F)C1 [Compound A64, 3-[[1-[2-[4-[3-[1-(5-chloropyrimidin-2-yl)-4-piperidyl]propoxy]-2-fluoro-phenyl]acetyl]azetidine-3-carbonyl]amino]propane-1-sulfonic acid]
11 | ≤ 100 | CCc1cnc(N2CCC(CCCOc3cc(F)c(CC(=O)N4CC(CNCC(O)(CO)CO)C4)c(F)c3)CC2)nc1 [Compound A37, 1-(3-(((2,3-dihydroxy-2-(hydroxymethyl)propyl)amino)methyl)azetidin-1-yl)-2-(4-(3-(1-(5-ethylpyrimidin-2-yl)piperidin-4-yl)propoxy)-2,6-difluorophenyl)ethan-1-one]
